Active and inactive are the calls of the source.
Tests used:
CHO-K1 = experiment: (§1) Counterscreen for antagonists of the orexin 1 receptor (OX1R; HCRTR1): Homogeneous time resolved fluorescence (HTRF)-based cell-based dose response assay to identify antagonists of the parental CHO-K1 cell line. [Related pubchem assays (depositor defined):AID434989, AID435008, AID463079, AID485270, AID492963, AID492964, AID492965, AID493232, AID504699, AID504701]; assay type: functional; details: Cricetulus griseus
[1] = as §1, with “Fluorescence-based” for “Homogeneous time resolved fluorescence (HTRF)-based”, “cell-based high throughput” for “cell-based”, “CHO” for “CHO-K1”; assay type: functional
[2] = biological target: T1, Orexin/Hypocretin receptor type 1 (Homo sapiens, UniProt O43613); experiment: Homogeneous Time Resolved Fluorescence (HTRF)-based cell-based high throughput dose response assay for antagonists of the orexin 1 receptor (OX1R; HCRTR1). [Related pubchem assays (depositor defined):AID434989, AID435008, AID463079, AID485270, AID492963, AID492964, AID492965, AID493232, AID504717, AID504718]; assay type: functional
T1 sequence (O43613 whole entry): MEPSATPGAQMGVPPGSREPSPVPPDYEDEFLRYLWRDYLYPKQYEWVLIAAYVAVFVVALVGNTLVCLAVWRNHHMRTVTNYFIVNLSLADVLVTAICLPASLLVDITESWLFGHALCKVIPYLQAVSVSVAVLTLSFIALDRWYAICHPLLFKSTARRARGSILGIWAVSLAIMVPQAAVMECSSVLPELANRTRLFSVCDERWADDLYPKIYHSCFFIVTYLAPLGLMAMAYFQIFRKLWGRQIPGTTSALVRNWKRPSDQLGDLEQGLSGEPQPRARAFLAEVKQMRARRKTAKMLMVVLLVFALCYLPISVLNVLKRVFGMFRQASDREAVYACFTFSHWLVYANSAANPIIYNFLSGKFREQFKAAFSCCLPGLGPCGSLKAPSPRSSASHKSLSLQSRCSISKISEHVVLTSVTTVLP

[3] = biological target: T1, Orexin/Hypocretin receptor type 1; experiment: Fluorescence-based cell-based high throughput dose response assay for antagonists of the orexin 1 receptor (OX1R; HCRTR1). [Related pubchem assays (depositor defined):AID434989, AID435008, AID463079, AID485270, AID492963, AID492964, AID492965, AID493232, AID504717, AID504718]; assay type: functional
Orexin receptor type 2 [4] = biological target: T2, Orexin receptor type 2 (Homo sapiens, UniProt O43614); experiment: Counterscreen assay for antagonists of the orexin 1 receptor (OX1R; HCRTR1): Fluorescence-based cell-based dose response assay for antagonists of the orexin 2 receptor (OX2R; HCRTR2), run by assay provider.; assay type: functional
T2 sequence (O43614 whole entry): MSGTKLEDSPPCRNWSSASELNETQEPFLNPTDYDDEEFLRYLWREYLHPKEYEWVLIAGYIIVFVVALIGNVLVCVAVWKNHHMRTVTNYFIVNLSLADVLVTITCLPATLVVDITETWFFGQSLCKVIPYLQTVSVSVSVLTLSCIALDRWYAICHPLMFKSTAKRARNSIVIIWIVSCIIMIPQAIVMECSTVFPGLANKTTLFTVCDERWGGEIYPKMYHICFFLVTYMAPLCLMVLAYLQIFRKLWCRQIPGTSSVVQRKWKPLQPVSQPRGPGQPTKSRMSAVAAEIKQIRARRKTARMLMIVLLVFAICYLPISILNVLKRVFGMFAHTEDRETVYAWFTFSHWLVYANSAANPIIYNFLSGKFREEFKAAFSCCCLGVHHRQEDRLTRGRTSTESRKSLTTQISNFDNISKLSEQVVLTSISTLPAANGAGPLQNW

Orexin receptor type 2 [5] = biological target: T2, Orexin receptor type 2; experiment: Counterscreen assay for antagonists of the orexin 1 receptor (OX1R; HCRTR1): Homogeneous Time Resolved Fluorescence (HTRF)-based cell-based dose response assay for antagonists of the orexin 2 receptor (OX2R; HCRTR2), run by assay provider.; assay type: functional
[6] = bead-based luminescence quenchers, dual-tagged ARNT – biochemical, AlphaScreen, cherry-pick, artefact control for ARNT-TACC3 interaction inhibitor project, dose response (AID 651705); assay type: functional;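 further: AlphaScreen bead proximity signal that flags compounds interfering with the detection technology; potency reflects signal decrease which marks the compound as an assay artifact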
Interleukin-8 [7] = biological target: T3, Interleukin-8 (Homo sapiens, UniProt P10145); experiment: Dose Response confirmation of uHTS small molecule hits for cystic fibrosis induced NFkb Inhibitors in a TNFa-induced IL8 counterscreen.; assay type: functional; details: read-out: IC50_Mean
T3 sequence (P10145 whole entry): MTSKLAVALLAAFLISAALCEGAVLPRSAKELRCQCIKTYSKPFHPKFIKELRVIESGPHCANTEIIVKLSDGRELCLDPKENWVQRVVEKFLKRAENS

Interleukin-8 [8] = biological target: T3, Interleukin-8; experiment: Dose Response confirmation of uHTS small molecule hits for cystic fibrosis induced NFkb Inhibitors in a PAF-induced IL8 counterscreen.; assay type: functional; details: read-out: IC50_Mean
[9] = tested on: Streptococcus sp. 'group A'; experiment: Streptococcus pyogenes SK(-)GAS viability under kanamycin – luminescence, BacTiterGlo, confirmation, counter-screen for streptokinase expression inhibitor project, dose response (AID 1900); assay type: functional, organism-based
Streptokinase A = biological target: T4, Streptokinase A (Streptococcus pyogenes serotype M1, UniProt P10520); experiment: viability-normalized secreted streptokinase activity reduction – plasminogen activation absorbance, OD405, dose response (AID 1914); assay type: functional, Streptococcus pyogenes M1 GAS;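 further: secreted streptokinase activity via plasminogen activation per viability signal from cell pellet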
T4 sequence (P10520 whole entry): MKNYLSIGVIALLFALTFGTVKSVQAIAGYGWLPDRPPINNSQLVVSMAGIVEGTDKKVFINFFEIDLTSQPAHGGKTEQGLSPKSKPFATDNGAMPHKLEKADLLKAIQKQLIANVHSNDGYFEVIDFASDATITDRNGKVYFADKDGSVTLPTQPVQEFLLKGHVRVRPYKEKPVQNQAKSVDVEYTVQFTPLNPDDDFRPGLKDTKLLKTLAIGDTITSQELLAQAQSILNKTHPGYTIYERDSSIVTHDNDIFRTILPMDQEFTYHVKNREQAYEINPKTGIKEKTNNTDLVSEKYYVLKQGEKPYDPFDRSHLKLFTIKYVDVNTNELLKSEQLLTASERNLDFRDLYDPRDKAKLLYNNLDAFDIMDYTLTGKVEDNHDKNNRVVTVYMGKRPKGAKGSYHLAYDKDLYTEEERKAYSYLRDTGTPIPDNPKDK

[10] = biological target: T5, E3 ubiquitin-protein ligase XIAP (Homo sapiens, UniProt P98170); experiment: Counter Screen using XIAP-Bir3 for Chemical Antagonists of Bir1/2 domains of IAP-family anti-apoptotic proteins. [Related pubchem assays (depositor defined):AID1018, AID1449, AID1514, AID1638, AID1749, AID1750, AID488957, AID488963]
T5 sequence (P98170 whole entry): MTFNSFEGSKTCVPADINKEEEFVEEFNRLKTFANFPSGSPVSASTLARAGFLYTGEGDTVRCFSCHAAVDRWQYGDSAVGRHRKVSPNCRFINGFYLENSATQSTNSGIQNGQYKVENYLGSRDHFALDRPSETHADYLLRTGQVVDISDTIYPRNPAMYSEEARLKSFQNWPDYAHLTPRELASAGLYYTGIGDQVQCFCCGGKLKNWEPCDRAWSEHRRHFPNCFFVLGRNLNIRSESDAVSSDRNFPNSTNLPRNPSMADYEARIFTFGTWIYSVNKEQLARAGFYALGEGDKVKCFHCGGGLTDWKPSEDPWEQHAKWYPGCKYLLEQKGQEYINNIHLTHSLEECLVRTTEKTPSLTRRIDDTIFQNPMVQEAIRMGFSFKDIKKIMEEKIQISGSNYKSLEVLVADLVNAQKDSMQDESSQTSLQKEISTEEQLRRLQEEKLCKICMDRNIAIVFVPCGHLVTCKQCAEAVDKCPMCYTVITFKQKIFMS

[11] = biological target: T5, E3 ubiquitin-protein ligase XIAP; experiment: small molecules displacing peptide from XIAP – biochemical, IAP family, fluorescence polarization (AID 1018); assay type: functional
[12] = Trypanosoma cruzi growth suppression in host cells – NIH3T3 host cells, beta-gal luminescence, confirmation (AID 2044); assay type: functional, cell-based;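 further: intracellular parasites grown in NIH/3T3 mouse fibroblasts as host cells; luminescent beta-galactosidase reporter signal from transgenic T. cruzi replicating inside host cells; inhibitors lower the luminescence signal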
[13] = NIH3T3 cell viability loss – ATP luminescence, mouse fibroblasts, counter-screen, dose response (AID 2010); assay type: functional, cell-based;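 further: cells exposed to compound for about 90 hours before reading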
Streptococcus = experiment: GAS UMAA2166 growth inhibition – luminescence, BacTiterGlo, counter-screen for streptokinase expression inhibitor project, dose response (AID 1915); assay type: functional, organism-based;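 further: potency for reduction of bacterial viability or growth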
Melanocortin receptor 4 = Melanocortin receptor 4 (Homo sapiens, UniProt P32245); experiment: inhibitors of MC4R cAMP signaling – cell-based, TR-FRET, biased antagonists, dose response (AID 602298); assay type: functional;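 further: antagonist potency against agonist-stimulated cAMP production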
Melanocortin receptor 4, sequence (P32245 whole entry): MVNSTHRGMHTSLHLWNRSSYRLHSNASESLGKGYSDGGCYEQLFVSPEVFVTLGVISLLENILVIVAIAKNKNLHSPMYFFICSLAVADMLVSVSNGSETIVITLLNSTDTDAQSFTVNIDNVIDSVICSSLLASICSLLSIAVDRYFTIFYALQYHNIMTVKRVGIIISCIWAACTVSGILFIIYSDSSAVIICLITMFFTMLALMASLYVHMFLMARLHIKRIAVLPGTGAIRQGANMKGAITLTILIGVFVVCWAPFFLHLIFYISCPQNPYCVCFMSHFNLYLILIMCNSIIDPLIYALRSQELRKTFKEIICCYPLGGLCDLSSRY

[14] = cAMP pathway inhibition in counterscreen cell line – TR-FRET cAMP detection, counter-screen for MC4R biased antagonist project, dose response (AID 602305); assay type: functional, cell-based;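 further: U2OS cells stimulated with forskolin near its EC80 as the cAMP inducer; potency is for inhibition of forskolin-stimulated cAMP signaling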
Paired box protein Pax-8 = Paired box protein Pax-8 (Homo sapiens, UniProt Q06710); experiment: PAX8 transcriptional activity inhibition in RMG-I – RMG-I cells, luciferase, cherry-pick, dose response (AID 687027); assay type: functional, cell-based;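 further: luciferase reporter driven by Pax8 target thyroperoxidase promoter measured by SteadyGlo luminescence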
Paired box protein Pax-8, sequence (Q06710 whole entry): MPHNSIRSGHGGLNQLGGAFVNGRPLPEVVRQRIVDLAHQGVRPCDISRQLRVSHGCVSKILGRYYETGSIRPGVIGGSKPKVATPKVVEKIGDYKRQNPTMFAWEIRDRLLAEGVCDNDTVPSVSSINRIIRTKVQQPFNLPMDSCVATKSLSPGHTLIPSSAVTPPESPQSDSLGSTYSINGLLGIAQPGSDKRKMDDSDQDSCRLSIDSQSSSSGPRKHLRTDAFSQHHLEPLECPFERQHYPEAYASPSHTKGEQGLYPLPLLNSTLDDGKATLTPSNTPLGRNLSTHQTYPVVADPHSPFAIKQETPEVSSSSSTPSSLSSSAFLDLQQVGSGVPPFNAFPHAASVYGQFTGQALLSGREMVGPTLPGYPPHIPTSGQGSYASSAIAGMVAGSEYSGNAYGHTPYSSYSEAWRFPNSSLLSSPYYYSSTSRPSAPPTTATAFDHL

[15] = general cell-killing toxicity readout – plate reader, dry powder samples, cytotoxicity control for PAX8 inhibitor project, dose response (AID 743021); assay type: functional, cell-based
[16] = biological target: Ras and Rab interactor 1/Tyrosine-protein kinase ABL1 (Homo sapiens, UniProt P00519+Q13671); assay type: functional;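 further: biochemical TR-FRET dose-response test measuring inhibition of binding between Rin1 and Abl proteins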
Ras and Rab interactor 1/Tyrosine-protein kinase ABL1, sequence (P00519 whole entry): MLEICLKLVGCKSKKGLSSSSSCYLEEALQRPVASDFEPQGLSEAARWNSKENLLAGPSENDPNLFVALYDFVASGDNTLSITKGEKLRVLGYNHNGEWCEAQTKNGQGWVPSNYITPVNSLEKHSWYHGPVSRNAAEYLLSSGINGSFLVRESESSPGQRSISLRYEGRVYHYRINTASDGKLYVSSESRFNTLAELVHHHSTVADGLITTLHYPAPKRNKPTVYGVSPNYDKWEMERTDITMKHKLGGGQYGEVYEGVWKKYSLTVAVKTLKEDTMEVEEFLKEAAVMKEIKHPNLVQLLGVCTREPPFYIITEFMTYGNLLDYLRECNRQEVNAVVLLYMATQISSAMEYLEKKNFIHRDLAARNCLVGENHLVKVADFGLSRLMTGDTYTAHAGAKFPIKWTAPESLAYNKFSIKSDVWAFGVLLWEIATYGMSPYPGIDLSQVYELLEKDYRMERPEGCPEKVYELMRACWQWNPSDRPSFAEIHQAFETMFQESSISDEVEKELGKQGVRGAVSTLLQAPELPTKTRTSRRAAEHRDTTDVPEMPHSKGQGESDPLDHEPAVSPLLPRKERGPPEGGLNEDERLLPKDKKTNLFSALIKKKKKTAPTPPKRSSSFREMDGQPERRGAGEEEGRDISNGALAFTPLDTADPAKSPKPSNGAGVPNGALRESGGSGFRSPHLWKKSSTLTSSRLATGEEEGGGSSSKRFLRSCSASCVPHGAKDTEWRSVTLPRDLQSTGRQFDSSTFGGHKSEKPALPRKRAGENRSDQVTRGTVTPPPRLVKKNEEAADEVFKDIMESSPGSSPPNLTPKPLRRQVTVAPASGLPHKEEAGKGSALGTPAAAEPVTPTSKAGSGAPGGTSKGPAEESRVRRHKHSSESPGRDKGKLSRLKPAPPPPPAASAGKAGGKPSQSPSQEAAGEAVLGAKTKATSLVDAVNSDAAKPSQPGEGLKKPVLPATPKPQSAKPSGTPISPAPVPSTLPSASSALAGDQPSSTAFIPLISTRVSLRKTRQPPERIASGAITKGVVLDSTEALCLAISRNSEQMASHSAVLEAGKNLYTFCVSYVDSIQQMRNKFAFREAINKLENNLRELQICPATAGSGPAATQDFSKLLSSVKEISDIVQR
Ras and Rab interactor 1/Tyrosine-protein kinase ABL1, sequence (Q13671 whole entry): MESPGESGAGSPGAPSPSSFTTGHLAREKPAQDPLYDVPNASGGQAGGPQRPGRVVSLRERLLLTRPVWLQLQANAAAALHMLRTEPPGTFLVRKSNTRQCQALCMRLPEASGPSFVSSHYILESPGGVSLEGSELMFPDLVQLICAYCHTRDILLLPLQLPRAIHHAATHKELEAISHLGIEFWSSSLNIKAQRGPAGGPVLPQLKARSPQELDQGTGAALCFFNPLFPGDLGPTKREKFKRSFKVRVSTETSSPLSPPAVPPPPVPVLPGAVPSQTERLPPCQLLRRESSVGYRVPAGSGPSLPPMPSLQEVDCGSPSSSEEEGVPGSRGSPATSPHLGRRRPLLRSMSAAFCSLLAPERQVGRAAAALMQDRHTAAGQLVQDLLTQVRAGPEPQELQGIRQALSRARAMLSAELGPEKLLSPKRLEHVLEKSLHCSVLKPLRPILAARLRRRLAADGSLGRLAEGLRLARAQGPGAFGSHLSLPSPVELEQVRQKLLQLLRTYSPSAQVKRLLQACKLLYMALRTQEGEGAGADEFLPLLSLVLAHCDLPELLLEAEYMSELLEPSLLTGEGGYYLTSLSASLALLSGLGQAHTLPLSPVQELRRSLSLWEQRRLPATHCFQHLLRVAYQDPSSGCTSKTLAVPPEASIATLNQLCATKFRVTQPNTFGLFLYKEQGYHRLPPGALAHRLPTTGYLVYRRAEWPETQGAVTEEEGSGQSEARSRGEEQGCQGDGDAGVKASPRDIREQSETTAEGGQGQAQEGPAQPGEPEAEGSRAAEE

Question: Which IC50 (CHO-K1) does the source give for `Cc1cccc(-c2cc3nc(-c4ccccc4)cc(N4CCC5(CC4)OCCO5)n3n2)c1` here?
Answer: Its IC50 is > 66.2 µM (inactive).

Question: What about the IC50 [1] of the same molecule?
Answer: The IC50 was > 49.8 µM (inactive).

Question: What about the IC50 [2] of the same molecule?
Answer: The IC50 was 5.38 µM (active).

Question: What about the IC50 [3] of the same molecule?
Answer: Its IC50 is 12.6 µM (inactive).

Question: What about the IC50 (Orexin receptor type 2 [4]) of the same molecule?
Answer: Its IC50 is > 88.8 µM (inactive).

Question: And the IC50 (Orexin receptor type 2 [5])?
Answer: The IC50 was > 50 µM (inactive).

Question: Which AC50 [6] does the source give for `O=S(=O)(c1ccc(Br)cc1)c1nc(-c2ccco2)oc1NCCCn1ccnc1` here?
Answer: Its AC50 is 108 µM (active).

Question: Which IC50 (Interleukin-8 [7]) does the source give for `O=S1(=O)CC=C(CSC(=S)NC2CCS(=O)(=O)C2)C1` (configuration not stated) here?
Answer: Its IC50 is 3.68 µM (active).

Question: And the IC50 (Interleukin-8 [8])?
Answer: Its IC50 is 2.06 µM (active).

Question: Which results are given for `COc1cc(/C=N/Nc2nc(Nc3ccc(C)cc3)nc(-n3nc(C)cc3C)n2)cc(OC)c1OC`?
Answer: EC50 [9]: 1.82 µM (active); EC50 (Streptokinase A): > 150 µM (not active); IC50 [10]: > 100 µM (inactive); IC50 [11]: > 100 µM (not active); EC50 [12]: 0.608 µM (active); EC50 [13]: 11 µM (active); EC50 (Streptococcus): 15.5 µM (active); IC50 (Melanocortin receptor 4): > 64.6 µM (inactive); IC50 [14]: > 64.6 µM (inactive); AC50 (Paired box protein Pax-8): 6.57 µM (active); AC50 [15]: 38.4 µM (active)

Question: For `Cc1cccc(/C=N/NC(=O)c2cc3c(s2)-c2ccccc2CC3)c1`, which IC50 (CHO-K1) is on record?
Answer: The IC50 was > 66.2 µM (inactive).

Question: And the IC50 [1]?
Answer: Its IC50 is > 49.8 µM (inactive).

Question: What about the IC50 [2] of the same molecule?
Answer: Its IC50 is 2.13 µM (active).

Question: What about the IC50 [3] of the same molecule?
Answer: Its IC50 is 2.81 µM (active).

Question: What about the IC50 (Orexin receptor type 2 [4]) of the same molecule?
Answer: Its IC50 is > 88.8 µM (inactive).

Question: What about the IC50 (Orexin receptor type 2 [5]) of the same molecule?
Answer: Its IC50 is > 50 µM (inactive).

Question: For `Nc1cc(O)c2[nH]cnc2n1`, which IC50 [16] is on record?
Answer: The IC50 was 33.6 µM (inactive).

Source: ChEMBL document CHEMBL1201862, “PubChem BioAssay data set” (2004)
